Results from ChEMBL document CHEMBL1201862, “PubChem BioAssay data set” (2004).
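Tested at 5 concentrations; 48 h exposure; 96-well plates; endpoints linearly interpolated, else capped at highest concentration. The concentration for 50% growth inhibition is given as GI50.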 Active and inactive are the calls of the source. Rule as the data show it: active = GI50 up to about 1.1 µM and inactive = higher.

Legend:
Test in all cases: NCI anticancer screen, dose series, 48 h
[1] = system: HOP-62
[2] = system: OVCAR-5
[3] = system: 786-0
[4] = system: RPMI-8226
[5] = system: EKVX
[6] = system: MDA-N
[7] = system: SF-268
[8] = system: MDA-MB-231
[9] = system: OVCAR-3
[10] = system: OVCAR-8
[11] = system: BT-549
[12] = system: DU-145
[13] = system: HL-60
[14] = system: OVCAR-4
[15] = system: CAKI-1
[16] = system: SNB-75
[17] = system: RXF 393
[18] = system: SF-539
[19] = system: T47D
[20] = system: Hs-578T
[21] = system: MOLT-4
[22] = system: Malme-3M
[23] = system: TK-10
[24] = system: HCC 2998
[25] = system: SN12C
[26] = system: HCT-116
[27] = system: SF-295
[28] = system: M14
[29] = system: UACC-62
[30] = system: NCI-H23
[31] = system: A498
[32] = system: CCRF-CEM
[33] = system: ACHN
[34] = system: SW-620
[35] = system: LOX IMVI
[36] = system: NCI-H226
[37] = system: HT-29
[38] = system: PC-3
[39] = system: SK-OV-3
[40] = system: NCI/ADR-RES
[41] = system: NCI-H460
[42] = system: COLO 205
[43] = system: UO-31
[44] = system: A549
[45] = system: KM12
[46] = system: IGROV-1
[47] = system: SR
[48] = system: HOP-92
[49] = system: K562
[50] = system: SNB-19
[51] = system: SK-MEL-28
[52] = system: HCT-15
[53] = system: MDA-MB-435
[54] = system: SK-MEL-2
[55] = system: MCF7
[56] = system: SK-MEL-5
[57] = system: UACC-257
[58] = system: NCI-H522
[59] = system: U-251
[60] = system: DMS-114
[61] = system: KM-20L2
[62] = system: SNB-78
[63] = system: LXFL 529

COC(=O)c1cc2cc3c(c(O)c2c(=O)o1)O[C@@]1(Oc2c(O)c4c(c(O)c2[C@H]1OC1CC(OC)C(O)C(C)O1)C(=O)C=C(OC)C4=O)[C@H](O)C3 (some centres undefined)
GI50 [1]: 1140 nM (inactive) | GI50 [2]: 1840 nM (inactive) | GI50 [3]: 991 nM (active) | GI50 [4]: 547 nM (active) | GI50 [5]: 1740 nM (inactive) | GI50 [6]: 1220 nM (inactive) | GI50 [7]: 986 nM (active) | GI50 [8]: 1270 nM (inactive) | GI50 [9]: 1450 nM (inactive) | GI50 [10]: 1060 nM (active) | GI50 [11]: 1300 nM (inactive) | GI50 [12]: 822 nM (active) | GI50 [13]: 719 nM (active) | GI50 [14]: 604 nM (active) | GI50 [15]: 448 nM (active) | GI50 [16]: 652 nM (active) | GI50 [17]: 726 nM (active) | GI50 [18]: 908 nM (active) | GI50 [19]: 1500 nM (inactive) | GI50 [20]: 1170 nM (inactive) | GI50 [21]: 748 nM (active) | GI50 [22]: 1280 nM (inactive) | GI50 [23]: 2070 nM (inactive) | GI50 [24]: 1200 nM (inactive) | GI50 [25]: 1300 nM (inactive) | GI50 [26]: 735 nM (active) | GI50 [27]: 724 nM (active) | GI50 [28]: 1170 nM (inactive) | GI50 [29]: 550 nM (active) | GI50 [30]: 940 nM (active) | GI50 [31]: 789 nM (active) | GI50 [32]: 889 nM (active) | GI50 [33]: 855 nM (active) | GI50 [34]: 1070 nM (active) | GI50 [35]: 492 nM (active) | GI50 [36]: 1320 nM (inactive) | GI50 [37]: 1140 nM (inactive) | GI50 [38]: 1360 nM (inactive) | GI50 [39]: 1850 nM (inactive) | GI50 [40]: 4620 nM (inactive) | GI50 [41]: 685 nM (active) | GI50 [42]: 1510 nM (inactive) | GI50 [43]: 1370 nM (inactive) | GI50 [44]: 1050 nM (active) | GI50 [45]: 904 nM (active) | GI50 [46]: 705 nM (active) | GI50 [47]: 458 nM (active) | GI50 [48]: 2410 nM (inactive) | GI50 [49]: 841 nM (active) | GI50 [50]: 1000 nM (active) | GI50 [51]: 659 nM (active) | GI50 [52]: 908 nM | GI50 [53]: 1090 nM (active) | GI50 [54]: 1530 nM (inactive) | GI50 [55]: 1140 nM (inactive) | GI50 [56]: 966 nM (active) | GI50 [57]: 2000 nM (inactive) | GI50 [58]: 2090 nM (inactive) | GI50 [59]: 785 nM (active)

Cc1ccccc1C(=O)C1CCCCC1O (centres undefined)
GI50 [1]: > 100000 nM (inactive) | GI50 [2]: > 100000 nM (inactive) | GI50 [3]: > 100000 nM (inactive) | GI50 [5]: > 100000 nM (inactive) | GI50 [7]: > 100000 nM (inactive) | GI50 [9]: > 100000 nM (inactive) | GI50 [60]: > 100000 nM (inactive) | GI50 [61]: > 100000 nM (inactive) | GI50 [13]: > 100000 nM (inactive) | GI50 [14]: > 100000 nM (inactive) | GI50 [15]: > 100000 nM (inactive) | GI50 [16]: > 100000 nM (inactive) | GI50 [17]: > 100000 nM (inactive) | GI50 [21]: > 100000 nM (inactive) | GI50 [22]: > 100000 nM (inactive) | GI50 [23]: > 100000 nM (inactive) | GI50 [24]: > 100000 nM (inactive) | GI50 [25]: > 100000 nM (inactive) | GI50 [26]: > 100000 nM (inactive) | GI50 [28]: > 100000 nM (inactive) | GI50 [29]: > 100000 nM (inactive) | GI50 [30]: > 100000 nM (inactive) | GI50 [33]: > 100000 nM (inactive) | GI50 [34]: > 100000 nM (inactive) | GI50 [35]: > 100000 nM (inactive) | GI50 [36]: > 100000 nM (inactive) | GI50 [39]: > 100000 nM (inactive) | GI50 [43]: > 100000 nM (inactive) | GI50 [44]: > 100000 nM (inactive) | GI50 [45]: > 100000 nM (inactive) | GI50 [46]: > 100000 nM (inactive) | GI50 [48]: > 100000 nM (inactive) | GI50 [49]: > 100000 nM (inactive) | GI50 [50]: > 100000 nM (inactive) | GI50 [62]: 23800 nM (inactive) | GI50 [52]: > 100000 nM | GI50 [54]: > 100000 nM (inactive) | GI50 [56]: > 100000 nM (inactive) | GI50 [63]: > 100000 nM (inactive) | GI50 [59]: > 100000 nM (inactive)
